The target in one experiment is T1, recombinant HSF1 DNA-binding domain (DBD) (Homo sapiens, UniProt Q00613).
T1 sequence (Q00613 15-120): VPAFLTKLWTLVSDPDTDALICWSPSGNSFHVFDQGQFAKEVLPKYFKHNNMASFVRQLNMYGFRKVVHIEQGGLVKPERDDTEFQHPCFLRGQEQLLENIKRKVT
Put plainly: Differential Scanning Fluorimetry (DSF), HSF1 DBD melting temperature. The conditions noted are these: Table 1; 5 μM HSF1 DBD, 25PM Compound; positive = stabilizes, negative = destabilizes HSF1. A general note: In DSF a fluorescence change marks the thermal transition of the protein.
In the case of `O=C(Nc1cccc(Cl)c1)O/N=C/c1ccc(F)cc1` [Compound 0045], the ΔTm is listed as −8.21.

Regarding `Cc1cc(N)c2ccccc2c1O` [Compound 0039], the ΔTm at 25 µM is -4.28 °C.

With `O=C(Nc1ccc(F)cc1)Nc1ccc(Cl)cc1` [Compound 0096, 1-(4-chlorophenyl)-3-(4-fluorophenyl)urea], the ΔTm at 25 µM turned out to be 2.61 °C.

Turning to `N#C/C(=C(/Oc1ccc(Cl)cc1Cl)C(F)(F)F)c1ccccc1` [Compound 0107], the ΔTm at 25 µM is -4.4 °C.

Consider `O=C(N/N=C/c1cccnc1)c1ccc(=O)[nH]n1` [Compound 0037], for which the ΔTm at 25 µM was -9.74 °C.

Turning to `O=[N+]([O-])c1cc(C(F)(F)F)cc([N+](=O)[O-])c1O/N=C1\CSCc2ccccc21` [Compound 0008], the ΔTm at 25 µM was -4.56 °C.

In the case of `Cc1cc(/C=N/Nc2nc3ccccc3s2)cc(C)c1O` [Compound 0114], the ΔTm at 25 µM stood at 0.49 °C.

Consider `CCC(C(=O)C(C)C(O)C(C)CCc1ccc(C)c(O)c1C(=O)O)C1OC(CC)(C2CCC(O)(CC)C(C)O2)CC1C` (centres unmarked) [Compound 0056], for which the ΔTm at 25 µM was -5.96 °C.

In the case of `Cc1ccc(/C=N/NC(=O)c2c[nH]c3ccccc23)s1` [Compound 0082], the ΔTm at 25 µM was found to be 3.9 °C.

On to `CCOC(=O)c1cc(C#N)c(Sc2nnc(SC)s2)nc1C(F)(F)F` [Compound 0055], for which the ΔTm at 25 µM is -9.69 °C.

Turning to `O=C(Nc1ccc(Cl)cc1)Nc1ccc(Cl)c([N+](=O)[O-])c1` [Compound 0048, 1-(4-chloro-3-nitrophenyl)-3-(4-chlorophenyl)urea], the ΔTm at 25 µM is 2.61 °C.

For the compound `O=c1c(Nc2ccc(F)c(F)c2)c(Nc2ccc(Cl)c(C(F)(F)F)c2)c1=O` [Compound 0092, 3-[4-chloro-3-(trifluoromethyl)anilino]-4-(3,4-difluoroanilino)cyclobut-3-ene-1,2-dione], the ΔTm at 25 µM was found to be 2.33 °C.

`Cc1ccc(C(=O)/C=C(\c2ccccc2)N2CCCCC2)cc1` [Compound 0071]: the ΔTm at 25 µM was -6.24 °C.

As to `CC(=O)NC1C(O)OC(OS(=O)(=O)O)C(O)C1OC1CC(C(=O)O)C(O)C(O)C1O` (centres unmarked) [Compound 0041], the ΔTm at 25 µM is -3.11 °C.

Consider `O=C(Nc1ccc(Cl)c([N+](=O)[O-])c1)Nc1ccc(F)c(C2(C(F)(F)F)N=N2)c1` [Compound 0094, 1-(4-chloro-3-nitro-phenyl)-3-[4-fluoro-3-[3-(trifluoromethyl)diazirin-3-yl]phenyl]urea], for which the ΔTm at 25 µM worked out at 2.92 °C.

As to `Cc1ccc(NC(=O)Nc2cccc(Cl)c2)cc1` [Compound 0068, 1-(3-chlorophenyl)-3-(p-tolyl)urea], the ΔTm at 25 µM was 2.75 °C.

`CSc1nnc(SC2=CC(=O)CC(c3ccccc3)C2)s1` (centres unmarked) [Compound 0031]: the ΔTm at 25 µM was -6.23 °C.

The experiment is the same for the next values; noted with them: Table 3; 5 μM HSF1 DBD, 25PM Compound; positive = stabilizes, negative = destabilizes HSF1.
For `Cc1ccc(NC(=O)Nc2ccc(Br)c(C(F)(F)F)c2)cc1` [Compound 075, 1-(4-bromo-3-(trifluoromethyl)phenyl)-3-(p-tolyl)urea], the ΔTm at 25 µM came to 2.61 °C.

For the compound `Cc1ccc(NC(=O)Nc2cccc(C(F)(F)F)c2)cc1` [Compound 058, 1-(p-tolyl)-3-(3-(trifluoromethyl)phenyl)urea], the ΔTm at 25 µM was 2.58 °C.

Take `O=c1c(Nc2ccc(F)cc2)c(Nc2ccc(Cl)c([N+](=O)[O-])c2)c1=O` [Compound 002, 3-(4-chloro-3-nitro-anilino)-4-(4-fluoroanilino)cyclobut-3-ene-1,2-dione]: the ΔTm at 25 µM amounted to 1.9 °C.

For `O=C(Nc1ccc(Cl)c([N+](=O)[O-])c1)Nc1ccc(F)c(C2(C(F)(F)F)N=N2)c1` [Compound 094, 1-(4-chloro-3-nitro-phenyl)-3-[4-fluoro-3-[3-(trifluoromethyl)diazirin-3-yl]phenyl]urea], the ΔTm at 25 µM was found to be 2.92 °C.

Consider `Cc1cccc(NC(=O)Nc2cccc(Cl)c2)c1` [Compound 006, 1-(3-chlorophenyl)-3-(m-tolyl)urea], for which the ΔTm at 25 µM came to 2.5 °C.

In the case of `N#CN=C(Nc1ccc(F)cc1)Nc1ccc(Cl)c([N+](=O)[O-])c1` [Compound 047, 1-(4-chloro-3-nitro-phenyl)-2-cyano-3-(4-fluorophenyl)guanidine], the ΔTm at 25 µM turned out to be 0.75 °C.

(Values after US20240317727A1 (Duke University, priority 2018, published 2024).)
